Laboratory results from patent US20200163984A1, “USE OF ISOVALERYL SPIRAMYCIN I, II AND/OR III IN MANUFACTURING MEDICAMENT FOR TREATING AND/OR PREVENTING TUMOR, AND MEDICAMENT” (SHENYANG FUYANG PHARMACEUTICAL TECHNOLOGY CO., LTD., priority 2017, published 2020).

How the values were obtained:
[1] = test system: transplanted tumor of human lymphoma cell U937; assay: U937 transplanted tumor in nude mice; settings: for Tumor Volume (mm3) (d 1): d1
Protocol: (§1) U937 cells in a logarithmic growth phase were taken and subjected to a trypan blue exclusion experiment showing that the cell viability was more than 95%, then the cells were subjected to trypsinization, centrifugation, and supernatant removal. Then cell concentration was adjusted to 1×10^7/ml with matrigel, then each nude mouse was inoculated subcutaneously with 0.2 ml of cells at its right armpit and recorded as the first day of inoculation. When the tumor grows to be greater than or equal to 100 mm^3, the mice were randomly divided into 11 groups with 6 mice in each group: a model group, a cyclophosphamide group, isovaleryl spiramycin I groups with doses of 25, 50 and 100 mg/kg, isovaleryl spiramycin II groups with doses of 25, 50 and 100 mg/kg, and isovaleryl spiramycin III groups with doses of 25, 50 and 100 mg/kg. Each group was continuously administered intragastrically for 30 days with a dose of 20 ml/kg. The mice were sacrificed the next day after drug withdrawal and the indicators were tested. The long diameter and short diameter of the tumor, and the body weight of each mouse were recorded every 3 days from drug administration to nude mouse sacrifice.
(§2) The body weight of the nude mice and the long diameter (a) and short diameter (b) of the transplanted tumor were measured every 3 days, and the tumor volume (v), relative tumor volume (RTV) and relative tumor proliferation rate (T/C) are calculated respectively according to the following formulas, wherein V=a×b^2/2; RTV=V/V0 (V0 is the tumor volume before administration, V is the tumor volume before sacrifice), and T/C (%)=treatment group RTV/model control group RTV×100%.
(§3) Each mouse was weighed and sacrificed. After the tumor was completely stripped off from the body of the mouse, the non-tumor tissues such as blood stains and fat were removed to weigh the tumor and calculate the tumor growth inhibition rate. The average tumor weight of each group of mice is used as an indicator of efficacy. Tumor growth inhibition rate (%)=(1−the average tumor weight of the treatment group/the average tumor weight of the model group)×100%.

[2] = test system: transplanted tumor of human cervical cancer cell HeLa; assay: HeLa transplanted tumor in nude mice; settings: for Tumor Volume (mm3) (d 1): d1
Protocol: as §1, with “HeLa” for “U937”
as §2, §3

[3] = Thymus index and spleen index of Lewis lung cancer tumor-bearing mice; settings: n = 6
Protocol: In the Lewis lung cancer model, the mice inoculated with the tumor were randomly divided into groups with 10 mice in each group the next day of inoculation. The groups included: a model control group, a positive drug cyclophosphamide control group (CTX, 30 mg/kg), isovaleryl spiramycin I groups with doses of 13, 26 and 52 mg/kg; isovaleryl spiramycin II groups with doses of 13, 26 and 52 mg/kg; isovaleryl spiramycin III groups with doses of 13, 26 and 52 mg/kg. Each group was continuously administered intragastrically for 15 days with a dose of 20 ml/kg.

[4] = U937, high dose (100 mg/kg in method) i.g. 30 days
[5] = U937, low dose (25 mg/kg in method) i.g. 30 days
[6] = U937, medium dose (50 mg/kg in method) i.g. 30 days
[7] = HeLa, high dose (100 mg/kg in method) i.g. 30 days
[8] = HeLa, low dose (25 mg/kg in method) i.g. 30 days
[9] = HeLa, medium dose (50 mg/kg in method) i.g. 30 days

mouse weight compared with the model group ([1]; mouse, in vivo): no significant changes | mouse weight compared with the model group ([2]; mouse, in vivo): no significant changes
Structure (SMILES): CO[C@@H]1[C@@H](O[C@@H]2O[C@H](C)[C@@H](O[C@H]3C[C@@](C)(O)[C@@H](OC(=O)CC(C)C)[C@H](C)O3)[C@H](N(C)C)[C@H]2O)[C@@H](CC=O)C[C@@H](C)[C@@H](O[C@H]2CC[C@H](N(C)C)[C@@H](C)O2)/C=C/C=C/C[C@@H](C)OC(=O)C[C@H]1O [Isovaleryl spiramycin I, isovaleryl spiramycin I]
Relative Tumor Proliferation Rate (T/C) [1, 4]: 35.25% | tumor growth inhibition rate [1, 4]: 65.03% | Relative Tumor Proliferation Rate (T/C) [1, 5]: 68.65% | tumor growth inhibition rate [1, 5]: 41.73% | tumor volume and relative tumor volume compared with the model group ([1]; U937, low, medium and high doses, P<0.05): significantly lower | Relative Tumor Proliferation Rate (T/C) [1, 6]: 39.74% | tumor growth inhibition rate [1, 6]: 50.73% | Inhibition Rate (%) ([1]; U937 nude mice, 12.5 mg/kg): 41.73% | Relative Tumor Proliferation Rate (T/C) ([1]; U937 nude mice, 12.5 mg/kg): 68.65% | Relative Tumor Volume (RTV) ([1]; U937 nude mice, 12.5 mg/kg): 11.70 ± 3.59 | Tumor Weight ([1]; U937 nude mice, 12.5 mg/kg): 1.13 ± 0.60 g | Tumor Volume (mm3) (d 1) ([1]; U937 nude mice, 12.5 mg/kg): 108.43 ± 6.49 mm3 | Tumor Volume (mm3) (d30) ([1]; U937 nude mice, 12.5 mg/kg): 1270.43 ± 435.28 mm3 | Inhibition Rate (%) ([1]; U937 nude mice, 25 mg/kg): 50.73% | Relative Tumor Proliferation Rate (T/C) ([1]; U937 nude mice, 25 mg/kg): 39.74% | Relative Tumor Volume (RTV) ([1]; U937 nude mice, 25 mg/kg): 6.77 ± 0.57 | Tumor Weight ([1]; U937 nude mice, 25 mg/kg): 0.95 ± 0.42 g | Tumor Volume (mm3) (d 1) ([1]; U937 nude mice, 25 mg/kg): 108.61 ± 9.06 mm3 | Tumor Volume (mm3) (d30) ([1]; U937 nude mice, 25 mg/kg): 734.22 ± 76.87 mm3 | Inhibition Rate (%) ([1]; U937 nude mice, 50 mg/kg): 65.03% | Relative Tumor Proliferation Rate (T/C) ([1]; U937 nude mice, 50 mg/kg): 35.25% | Relative Tumor Volume (RTV) ([1]; U937 nude mice, 50 mg/kg): 6.01 ± 2.26 | Tumor Weight ([1]; U937 nude mice, 50 mg/kg): 0.68 ± 0.09 g | Tumor Volume (mm3) (d 1) ([1]; U937 nude mice, 50 mg/kg): 109.98 ± 5.88 mm3 | Tumor Volume (mm3) (d30) ([1]; U937 nude mice, 50 mg/kg): 660.17 ± 37.49 mm3 | Body Weight (g) (d1) ([1]; mouse, in vivo, 12.5 mg/kg): 21.19 ± 0.66 g | Body Weight (g) (d30) ([1]; mouse, in vivo, 12.5 mg/kg): 21.16 ± 0.74 g | Body Weight (g) (d1) ([1]; mouse, in vivo, 25 mg/kg): 21.28 ± 0.52 g | Body Weight (g) (d30) ([1]; mouse, in vivo, 25 mg/kg): 21.01 ± 0.68 g | Body Weight (g) (d1) ([1]; mouse, in vivo, 50 mg/kg): 20.64 ± 0.39 g | Body Weight (g) (d30) ([1]; mouse, in vivo, 50 mg/kg): 20.94 ± 0.77 g | Inhibition Rate (%) ([2]; HeLa nude mice, 12.5 mg/kg): 46.69% | Relative Tumor Proliferation Rate (T/C) ([2]; HeLa nude mice, 12.5 mg/kg): 69.18% | Relative Tumor Volume (RTV) ([2]; HeLa nude mice, 12.5 mg/kg): 11.47 ± 4.97 | Tumor Weight ([2]; HeLa nude mice, 12.5 mg/kg): 1.03 ± 0.59 g | Tumor Volume (mm3) (d 1) ([2]; HeLa nude mice, 12.5 mg/kg): 112.43 ± 6.87 mm3 | Tumor Volume (mm3) (d30) ([2]; HeLa nude mice, 12.5 mg/kg): 1287.77 ± 552.57 mm3 | Inhibition Rate (%) ([2]; HeLa nude mice, 25 mg/kg): 51.57% | Relative Tumor Proliferation Rate (T/C) ([2]; HeLa nude mice, 25 mg/kg): 39.57% | Relative Tumor Volume (RTV) ([2]; HeLa nude mice, 25 mg/kg): 6.56 ± 0.55 | Tumor Weight ([2]; HeLa nude mice, 25 mg/kg): 0.94 ± 0.48 g | Tumor Volume (mm3) (d 1) ([2]; HeLa nude mice, 25 mg/kg): 112.78 ± 9.72 mm3 | Tumor Volume (mm3) (d30) ([2]; HeLa nude mice, 25 mg/kg): 738.39 ± 75.32 mm3 | Inhibition Rate (%) ([2]; HeLa nude mice, 50 mg/kg): 65.55% | Relative Tumor Proliferation Rate (T/C) ([2]; HeLa nude mice, 50 mg/kg): 30.91% | Relative Tumor Volume (RTV) ([2]; HeLa nude mice, 50 mg/kg): 5.13 ± 0.68 | Tumor Weight ([2]; HeLa nude mice, 50 mg/kg): 0.67 ± 0.09 g | Tumor Volume (mm3) (d 1) ([2]; HeLa nude mice, 50 mg/kg): 114.15 ± 6.08 mm3 | Tumor Volume (mm3) (d30) ([2]; HeLa nude mice, 50 mg/kg): 588.18 ± 73.34 mm3 | Relative Tumor Proliferation Rate (T/C) [2, 7]: 30.91% | tumor growth inhibition rate [2, 7]: 65.55% | Relative Tumor Proliferation Rate (T/C) [2, 8]: 69.18% | tumor growth inhibition rate [2, 8]: 46.69% | tumor volume and relative tumor volume compared with the model group ([2]; HeLa, low, medium and high doses, P<0.05): significantly lower | Relative Tumor Proliferation Rate (T/C) [2, 9]: 39.57% | tumor growth inhibition rate [2, 9]: 51.57% | Body Weight (g) (d1) ([2]; mouse, in vivo, 12.5 mg/kg): 20.72 ± 0.49 g | Body Weight (g) (d30) ([2]; mouse, in vivo, 12.5 mg/kg): 21.10 ± 0.68 g | Body Weight (g) (d1) ([2]; mouse, in vivo, 25 mg/kg): 21.07 ± 0.44 g | Body Weight (g) (d30) ([2]; mouse, in vivo, 25 mg/kg): 21.23 ± 0.73 g | Body Weight (g) (d1) ([2]; mouse, in vivo, 50 mg/kg): 20.82 ± 0.72 g | Body Weight (g) (d30) ([2]; mouse, in vivo, 50 mg/kg): 20.95 ± 0.45 g | Spleen Index (%) ([3]; dose 13 mg/kg): 0.72 ± 0.21% | Thymus Index (%) ([3]; dose 13 mg/kg): 0.12 ± 0.03% | Spleen Index (%) ([3]; dose 26 mg/kg): 0.62 ± 0.15% | Thymus Index (%) ([3]; dose 26 mg/kg): 0.13 ± 0.04% | Spleen Index (%) ([3]; dose 52 mg/kg): 0.77 ± 0.14 % | Thymus Index (%) ([3]; dose 52 mg/kg): 0.12 ± 0.06%
